Results reported in patent US20150299233A1, “COMPOSITIONS AND METHODS COMPRISING RHENIUM FOR THE TREATMENT OF CANCERS” (Massachusetts Institute of Technology, priority 2014, published 2015).
Read-outs that look alike come from different tables or passages of the source.

What was measured:
A549 cells [1] = assay: Intracellular ROS assay (DCFH-DA, flow cytometry); type: cell-based, human; conditions: 1, 2, shikonin 20 μM for 12 h; H2O2 1 mM for 1 h
Procedure: Characterization of Necroptotic Features. Having established that necrosome formation is a determinant of 1 and 2 activity, additional studies were performed to understand the cascade of events leading from necrosome formation to cell death. Necrosomes generate abnormally high levels of mitochondrial ROS, leading to ATP depletion and eventual degradation of the mitochondrial membrane potential. With this fact in mind, intracellular ROS production was quantified by flow cytometry using 6-carboxy-2′,7′-dichlorodihydrofluorescein diacetate (DCFH-DA), a well-established ROS indicator.
In FIG. 2: (A) Representative histograms displaying the green fluorescence emitted by DCFH-DA-stained A549 cells (i) and A549 cells treated with 1(20 μM for 12 h) (iii) or 1 (20 μM for 12 h) with nectrostatin-1 (60 μM for 12 h) (ii). (B) Representative histograms displaying the green fluorescence emitted by DCFH-DA-stained A549 cells (i) and A549 cells treated with 2 (20 μM for 12 h) (iii) or 2 (20 μM for 12 h) with nectrostatin-1 (60 μM for 12 h) (ii). (C) Representative histograms displaying the green fluorescence emitted by DCFH-DA-stained A549 cells (i) and A549 cells treated withH2O2 (1mM for 1 h) (iii). (D) Representative histograms displaying the green fluorescence emitted by DCFH-DA-stained A549 cells (i) and A549 cells treated with shikonin (20 μM for 12 h) (iii).
Intracellular ROS Assay. Untreated and treated A549 cells (1.5×10^6 cells/well) grown in six-well plates were incubated with 6-carboxy-2′,7′-dichlorodihydrofluorescein diacetate (20 μM) for 30 min. The cells were then washed with PBS (1 mL x 3), harvested, and analyzed by using a FACSCalibur-HTS flow cytometer (BD Biosciences) (20 000 events per sample were acquired). The FL1 channel was used to assess intracellular ROS levels. Cell populations were analyzed using the FlowJo software (Tree Star).

[2] = system: HeLa cervical adenocarcinoma cells; assay: MTT cytotoxicity assay, HeLa cells; type: cell-based, human
MRC-5 [3] = assay: MTT cytotoxicity assay, MRC-5 normal lung fibroblasts; type: cell-based, human; conditions: Table A; average of three independent determinations; read-out: IC50 MRC5 (lung normal)
Procedure: (§1) In vitro toxicity of the rhenium (v) oxo complexes, 1 and 2 towards a panel of human cell lines was determined using the colorimetic MTT [[3-(4,5-dimethylithiazol-2-yl)-2,5-diphenyltetrazolium bromide] assay.
(§2) The in vitro effect of rhenium(V) oxo complexes 1 and 2 toward a panel of human cell lines was determined by the colorimetric MTT [3-(4,5-dimethylthiazol-2-yl)-2,5-diphenyltetrazolium bromide] assay. […] The IC50 values, or concentration required to induce 50% cell death, were derived from dose—response curves and are summarized in Table 1.
(§3) Cells (2×10^3 cells/well) were seeded in a 96-well plate. […] 1 and 2 were prepared as 10 mM solutions in DMSO and diluted using media. The final concentration of DMSO in each well was 0.5%, and this amount was also present in the untreated control. After 72 h, the medium was removed, 200 μL of a 0.4 mg/mL solution of MTT in DMEM, RPMI, or McCoy's 5A was added, and the plate was incubated for an additional 1-2 h. The DMEM/MTT, RPMI/MTT, or McCoy's 5A/MTT mixture was aspirated, and 200 μL of DMSO was added to dissolve the resulting purple formazan crystals. The absorbance of the solution wells was read at 550 nm. Absorbance values were normalized to DMSO-containing control wells and plotted as the concentration of test compound versus % cell viability. IC50 values were interpolated from the resulting dose-dependent curves. The reported IC50 values are the average from at least three independent experiments, each of which consisted of six replicates per concentration level.

[4] = system: DU 145 (prostate carcinoma); assay: MTT cytotoxicity assay, DU 145 cells; type: cell-based, human; conditions: Table 2; cisplatin-resistant cell line; 72 h exposure; read-out: IC50 DU 14S prostate carcinoma
MRC-5 [5] = conditions: Table 1; 72 h exposure; value taken from ref 4S; read-out: IC50 MRC-5 lung fibroblast; cited from earlier work
NTERA-2 = assay: MTT cytotoxicity assay, NTERA-2 cells; type: cell-based, human; conditions: Table 1; 72 h exposure; ± standard deviation; read-out: IC50 NTERA-2 testis carcinoma
[6] = system: cisplatin-resistant ovarian carcinoma cells (A2780CP70); assay: MTT cytotoxicity assay, A2780CP70 cells; type: cell-based, human
U2OS [7] = assay: MTT cytotoxicity assay, U2OS cells; type: cell-based, human; conditions: Table A; average of three independent determinations; read-out: IC50 U2OS (bone)
[8] = system: cisplatin-sensitive cells (A2780); assay: MTT cytotoxicity assay, A2780 cells; type: cell-based, human; conditions: Table A; average of three independent determinations; read-out: IC50 A2780 (ovarian)
[9] = system: MCF-7 (breast adenocarcinoma); assay: MTT cytotoxicity assay, MCF-7 cells; type: cell-based, human; conditions: Table 2; cisplatin-resistant cell line; 72 h exposure
A549 cells [10] = assay: MTT cytotoxicity assay, A549 cells; type: cell-based, human
Procedure: as §1, §2, §3

[11] = system: PC-3 (prostate adenocarcinoma); assay: MTT cytotoxicity assay, PC-3 cells; type: cell-based, human; conditions: Table 2; cisplatin-resistant cell line; 72 h exposure
[12] = system: HT-29 (colorectal adenocarcinoma); assay: MTT cytotoxicity assay, HT-29 cells; type: cell-based, human; conditions: Table 2; cisplatin-resistant cell line; 72 h exposure
Procedure: Cytotoxicity MTT Assay. […] Cells (2×10^3 cells/well) were seeded in a 96-well plate. […] The final concentration of DMSO in each well was 0.5%, and this amount was also present in the untreated control. After 72 h, the medium was removed, 200 μL of a 0.4 mg/mL solution of MTT in DMEM, RPMI, or McCoy's 5A was added, and the plate was incubated for an additional 1-2 h. The DMEM/MTT, RPMI/MTT, or McCoy's 5A/MTT mixture was aspirated, and 200 μL of DMSO was added to dissolve the resulting purple formazan crystals. The absorbance of the solution wells was read at 550 nm. Absorbance values were normalized to DMSO-containing control wells and plotted as the concentration of test compound versus % cell viability. IC50 values were interpolated from the resulting dose-dependent curves. The reported IC50 values are the average from at least three independent experiments, each of which consisted of six replicates per concentration level.

[13] = system: MDA-MB-231 (breast adenocarcinoma); assay: MTT cytotoxicity assay, MDA-MB-231 cells; type: cell-based, human; conditions: Table 2; cisplatin-resistant cell line; 72 h exposure; read-out: IC50 MDA-M8-231 breast adenocarcinoma
confluent A549 cells = assay: MTT cytotoxicity assay, confluent A549 cells; type: cell-based, human; conditions: Table 2; confluent cells; 72 h exposure; read-out: IC50 A549 (confluent) lung carcinoma
U2OS [14] = conditions: Table 1; 72 h exposure; value taken from ref 4S; read-out: IC50 U2OS bone osteosarcoma; cited from earlier work
[15] = system: cisplatin-sensitive cells (A2780); conditions: Table 1; 72 h exposure; value taken from ref 4S; read-out: IC50 A2780 ovarian carcinoma; cited from earlier work

Compound | intracellular ROS versus untreated control cells (A549 cells [1]) | IC50 ([2]; Table 1, 72 h exposure, ± standard deviation, read-out: IC50 HeLa cervical adenocarcinoma) | IC50 ([2]; Table A, average of three independent determinations, read-out: IC50 HeLa (cervical)) | IC50 (MRC-5 [3]) | IC50 [4] | IC50 (MRC-5 [5]) | IC50 (NTERA-2) | IC50 ([6]; Table 1, 72 h exposure, ± standard deviation, read-out: IC50 A2780CP70 ovarian carcinoma) | IC50 ([6]; Table A, average of three independent determinations, read-out: IC50 A280CP70 (ovarian)) | IC50 (U2OS [7]) | IC50 [8] | IC50 [9] | IC50 (A549 cells [10]; Table 1, 72 h exposure, ± standard deviation, read-out: IC50 A549 lung carcinoma) | IC50 (A549 cells [10]; Table A, average of three independent determinations, read-out: IC50 A549 (lung)) | IC50 [11] | IC50 [12] | IC50 [13] | IC50 (confluent A549 cells) | IC50 (U2OS [14]) | IC50 [15]
OO [Compound H2O2, H2O2, reference compound] | significantly higher levels of measurable ROS |  |  |  |  |  |  |  |  |  |  |  |  |  |  |  |  |  |  | 
N.N.[Cl][Pt][Cl] [cisplatin, reference compound] |  | 4.1 ± 0.113 µM | 4.1 ± 0.011 µM | 11.1 ± 1.33 µM | > 100 µM | 5.3 ± 0.6 µM | 0.385 ± 0.049 µM | 8.42 ± 0.205 µM | 8.42 ± 0.205 µM | 4.6 ± 0.6 µM | 1.41 ± 0.037 µM | 9.74 ± 0.537 µM | 3.23 ± 0.467 µM | 2.74 ± 0.006 µM | 10.2 ± 0.919 µM | 29.6 ± 1.33 µM | 43.6 ± 7.07 µM | 9.42 ± 1.94 µM | 4.6 ± 0.6 µM | 0.7 ± 0.2 µM
